Test results as given in the NIST ThermoML archive (doi:10.1021/je060139a).
Numbers after ± are expanded uncertainties.

Key:
[1] = xn = mol fraction of the nth substance listed; conditions: Wilhelmy plate method
[2] = refractive index (Na D-line) (dimensionless); xn = mol fraction of the nth substance listed; conditions: 100.5 kPa, Liquid, Standard Abbe refractometry

CCOC(=O)CC(C)C [ethyl 3-methylbutanoate] + CCO
Conditions | refractive index, [2] | surface tension liquid-gas, [1] [mN/m]
288.15 K, x1 = 0.05 | 1.3677 ± 0.00031 | 23.14 ± 0.4
288.15 K, x1 = 0.1 | 1.37142 ± 0.00031 | 23.26 ± 0.4
288.15 K, x1 = 0.15 | 1.37464 ± 0.00032 | 23.37 ± 0.4
288.15 K, x1 = 0.2 | 1.37745 ± 0.00032 | 23.46 ± 0.4
288.15 K, x1 = 0.25 | 1.37993 ± 0.00032 | 23.55 ± 0.4
288.15 K, x1 = 0.3 | 1.38213 ± 0.00032 | 23.62 ± 0.4
288.15 K, x1 = 0.35 | 1.3841 ± 0.00032 | 23.69 ± 0.4
288.15 K, x1 = 0.4 | 1.38587 ± 0.00033 | 23.76 ± 0.4
288.15 K, x1 = 0.45 | 1.38748 ± 0.00033 | 23.82 ± 0.4
288.15 K, x1 = 0.5 | 1.38894 ± 0.00033 | 23.88 ± 0.41
288.15 K, x1 = 0.55 | 1.39028 ± 0.00034 | 23.93 ± 0.41
288.15 K, x1 = 0.6 | 1.39151 ± 0.00034 | 23.99 ± 0.41
288.15 K, x1 = 0.65 | 1.39264 ± 0.00034 | 24.04 ± 0.41
288.15 K, x1 = 0.7 | 1.39369 ± 0.00035 | 24.09 ± 0.41
288.15 K, x1 = 0.75 | 1.39467 ± 0.00035 | 24.15 ± 0.41
288.15 K, x1 = 0.8 | 1.39559 ± 0.00035 | 24.2 ± 0.41
288.15 K, x1 = 0.85 | 1.39646 ± 0.00036 | 24.25 ± 0.41
288.15 K, x1 = 0.9 | 1.39729 ± 0.00036 | 24.3 ± 0.42
288.15 K, x1 = 0.95 | 1.39807 ± 0.00037 | 24.35 ± 0.42
288.15 K, x1 = 1 | 1.3988 ± 0.00037 | 24.4 ± 0.42
298.18 K, x1 = 0.05 | 1.36363 ± 0.00031 | 22.4 ± 0.4
298.18 K, x1 = 0.1 | 1.36724 ± 0.00032 | 22.5 ± 0.4
298.18 K, x1 = 0.15 | 1.37038 ± 0.00032 | 22.58 ± 0.4
298.18 K, x1 = 0.2 | 1.37312 ± 0.00032 | 22.66 ± 0.4
298.18 K, x1 = 0.25 | 1.37554 ± 0.00032 | 22.73 ± 0.4
298.18 K, x1 = 0.3 | 1.37769 ± 0.00032 | 22.79 ± 0.4
298.18 K, x1 = 0.35 | 1.37961 ± 0.00032 | 22.85 ± 0.4
298.18 K, x1 = 0.4 | 1.38134 ± 0.00033 | 22.91 ± 0.4
298.18 K, x1 = 0.45 | 1.38291 ± 0.00033 | 22.96 ± 0.4
298.18 K, x1 = 0.5 | 1.38434 ± 0.00033 | 23 ± 0.41
298.18 K, x1 = 0.55 | 1.38564 ± 0.00034 | 23.05 ± 0.41
298.18 K, x1 = 0.6 | 1.38684 ± 0.00034 | 23.1 ± 0.41
298.18 K, x1 = 0.65 | 1.38795 ± 0.00034 | 23.15 ± 0.41
298.18 K, x1 = 0.7 | 1.38897 ± 0.00035 | 23.2 ± 0.41
298.18 K, x1 = 0.75 | 1.38993 ± 0.00035 | 23.26 ± 0.41
298.18 K, x1 = 0.8 | 1.39083 ± 0.00035 | 23.31 ± 0.41
298.18 K, x1 = 0.85 | 1.39169 ± 0.00036 | 23.35 ± 0.41
298.18 K, x1 = 0.9 | 1.3925 ± 0.00036 | 23.4 ± 0.41
298.18 K, x1 = 0.95 | 1.39328 ± 0.00037 | 23.45 ± 0.42
298.18 K, x1 = 1 | 1.39401 ± 0.00037 | 23.5 ± 0.42
308.15 K, x1 = 0.05 | 1.35942 ± 0.00031 | 21.57 ± 0.4
308.15 K, x1 = 0.1 | 1.36295 ± 0.00032 | 21.64 ± 0.4
308.15 K, x1 = 0.15 | 1.36603 ± 0.00032 | 21.7 ± 0.4
308.15 K, x1 = 0.2 | 1.36872 ± 0.00032 | 21.76 ± 0.4
308.15 K, x1 = 0.25 | 1.3711 ± 0.00032 | 21.81 ± 0.4
308.15 K, x1 = 0.3 | 1.37321 ± 0.00032 | 21.86 ± 0.4
308.15 K, x1 = 0.35 | 1.3751 ± 0.00032 | 21.91 ± 0.4
308.15 K, x1 = 0.4 | 1.3768 ± 0.00033 | 21.96 ± 0.4
308.15 K, x1 = 0.45 | 1.37834 ± 0.00033 | 22 ± 0.4
308.15 K, x1 = 0.5 | 1.37974 ± 0.00033 | –
308.15 K, x1 = 0.55 | 1.38102 ± 0.00034 | 22.04 ± 0.41
308.15 K, x1 = 0.6 | 1.3822 ± 0.00034 | 22.08 ± 0.41
308.15 K, x1 = 0.65 | 1.38329 ± 0.00034 | 22.13 ± 0.41
308.15 K, x1 = 0.7 | 1.3843 ± 0.00035 | 22.17 ± 0.41
308.15 K, x1 = 0.75 | 1.38524 ± 0.00035 | 22.22 ± 0.41
308.15 K, x1 = 0.8 | 1.38613 ± 0.00035 | 22.27 ± 0.41
308.15 K, x1 = 0.85 | 1.38698 ± 0.00036 | 22.31 ± 0.41
308.15 K, x1 = 0.9 | 1.38779 ± 0.00036 | 22.36 ± 0.41
308.15 K, x1 = 0.95 | 1.38857 ± 0.00037 | 22.41 ± 0.41
308.15 K, x1 = 1 | 1.38931 ± 0.00037 | 22.45 ± 0.42
318.15 K, x1 = 0.05 | 1.35545 ± 0.00031 | 20.65 ± 0.4
318.15 K, x1 = 0.1 | 1.35888 ± 0.00032 | 20.72 ± 0.4
318.15 K, x1 = 0.15 | 1.36186 ± 0.00032 | 20.78 ± 0.4
318.15 K, x1 = 0.2 | 1.36447 ± 0.00032 | 20.83 ± 0.4
318.15 K, x1 = 0.25 | 1.36679 ± 0.00032 | 20.88 ± 0.4
318.15 K, x1 = 0.3 | 1.36884 ± 0.00032 | 20.94 ± 0.4
318.15 K, x1 = 0.35 | 1.37068 ± 0.00032 | 20.99 ± 0.4
318.15 K, x1 = 0.4 | 1.37233 ± 0.00033 | 21.03 ± 0.4
318.15 K, x1 = 0.45 | 1.37383 ± 0.00033 | 21.08 ± 0.4
318.15 K, x1 = 0.5 | 1.37519 ± 0.00033 | 21.12 ± 0.4
318.15 K, x1 = 0.55 | 1.37644 ± 0.00034 | 21.17 ± 0.41
318.15 K, x1 = 0.6 | 1.37759 ± 0.00034 | 21.21 ± 0.41
318.15 K, x1 = 0.65 | 1.37865 ± 0.00034 | 21.26 ± 0.41
318.15 K, x1 = 0.7 | 1.37964 ± 0.00035 | 21.3 ± 0.41
318.15 K, x1 = 0.75 | 1.38056 ± 0.00035 | 21.35 ± 0.41
318.15 K, x1 = 0.8 | 1.38143 ± 0.00035 | 21.4 ± 0.41
318.15 K, x1 = 0.85 | 1.38226 ± 0.00036 | 21.45 ± 0.41
318.15 K, x1 = 0.9 | 1.38306 ± 0.00036 | 21.5 ± 0.41
318.15 K, x1 = 0.95 | 1.38384 ± 0.00037 | 21.55 ± 0.41
318.15 K, x1 = 1 | 1.38458 ± 0.00037 | 21.6 ± 0.41
